ChEMBL document CHEMBL4334442, “Effects of Acetylshikonin on the Infection and Replication of Coxsackievirus A16 in Vitro and in Vivo” (J Nat Prod, 2019)

Assays:
[1] = test system: Coxsackievirus A16; assay: Antiviral activity against Coxsackievirus A16 TA271 infected in human RD cells assessed as inhibition of virus-induced cytopathic effect preincubated with viral suspension for 2 hrs followed by cell addition and measured after 24 hrs by CCK-8 assay; assay type: functional, cell-based
[2] = Selectivity index, ratio of CC50 for cytotoxicity against human RD cells to EC50 for antiviral activity against Coxsackievirus A16 TA271 infected in human RD cells; assay type: toxicity, cell-based; details: read-out: Ratio CC50/EC50
[3] = Cytotoxicity against human RD cells assessed as reduction in cell viability after 12 hrs by CCK8 assay; assay type: cell-based

With `NC(=O)c1ncn([C@@H]2O[C@H](CO)[C@@H](O)[C@H]2O)n1` [RIBAVIRIN] the Activity [1] was “Dose-dependent effect”, the EC50 ([1]; Enterovirus A) was 144 µM and the selectivity ratio [2] was 10.3. It also gave a CC50 at 12 h [3] of 1480 µM.
